Test results published in patent US20240166654A1, “RUXOLITINIB CRYSTAL AND PHARMACEUTICAL COMPOSITION THEREOF” (ZHEJIANG AUSUN PHARMACEUTICAL CO., LTD., priority 2022, published 2024).

Tests used:
[1] = Stability of solid forms in stabilization chamber (appearance or XRPD versus initial solid form); format: physicochemical; settings: for Physical stability (solid form): 3.0 g sample, appearance or XRPD compared with initial solid form
Description: 3.0 g of ruxolitinib free base in different solid forms was stored in a stabilization chamber, and placed in the condition that the temperature and humidity were controlled to at 25° C., 60% RH, and 40° C., 75% RH for […], respectively. The samples were analyzed by appearance or XRPD to check its solid form and compared with its initial solid form.

[2] = Storage of crystal in polyethylene self-sealing bag, XRPD pattern; format: physicochemical; settings: 30-35° C. for 3 months, transparent polyethylene self-sealing bag, 10.0 g
Description: In addition, 10.0 g of crystal of compound of formula I of Example 1 was placed in a transparent polyethylene self-sealing bag and allowed to stand at 30-35° C. for 3 months.

SMILES	Stability compared with ruxolitinib foam and amorphous form of Example 5 ([1]; 25° C., 60% RH for 2 hours and 40° C., 75% RH for 8 hours, summary of Table 4)	Physical stability (solid form) ([1]; 25° C./60%-RH, 2 hours)	Physical stability (solid form) ([1]; 40° C./75%-RH, 8 hours)	Stability of crystalline form by XRPD [2]	Physical stability (hygroscopicity observation) ([1]; 25° C./60%-RH, 2 hours)	Physical stability (hygroscopicity observation) ([1]; 40° C./75%-RH, 8 hours)
N#CC[C@H](C1CCCC1)n1cc(-c2ncnc3[nH]ccc23)cn1 [Compound of Formula I of Example 1, ((3R)-3-cyclopentyl-3-[4-(7H-pyrrolo[2,3-d]pyrimidin-4-yl)pyrazol-1-yl]propionitrile)·2H2O]	better stability	No change of solid form	No change of solid form	remains stable	–	–
N#CC[C@H](C1CCCC1)n1cc(-c2ncnc3[nH]ccc23)cn1 [Foam]	–	Change of solid form,	Change of solid form,	–	hygroscopic	hygroscopic
